Test results as given in PubChem BioAssay AID330 (DTP/NCI, 2004).
Where “and” joins values, the source holds several entries; their conditions need not be identical. Identical values can stand only once. Toxic doses and inconclusive results are not listed. The calls were made as follows: active = survival T/C of 150% or more; inactive = T/C below 125% in these data.

System: P388 leukemia ip, CD2F1 mice, survival T/C
Assay: NCI In Vivo Anticancer Drug Screen. Data for tumor model P388 Leukemia (intraperitoneal) in CD2F1 (CDF1) mice
Conditions: endpoint: median survival time, higher = longer survival
Procedure, shortened: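 Mice carrying the transplanted tumor received test compound or vehicle. Survival was recorded in each group, and the value is the treated-group measurement divided by that of the vehicle-treated control group.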

[1] = dose: 50.0 mg/kg/injection, schedule: Q01DX009 (ip), vehicle: Klucel (hydroxypropylcellulose) (HPC)
[2] = dose: 100.0 mg/kg/injection, schedule: Q01DX009 (ip), vehicle: Klucel (hydroxypropylcellulose) (HPC)
[3] = dose: 50.0 mg/kg/injection, schedule: Q01DX001 (ip), vehicle: Klucel (hydroxypropylcellulose) (HPC)
[4] = dose: 100.0 mg/kg/injection, schedule: Q04DX003 (ip), vehicle: saline with Tween-80
[5] = dose: 200.0 mg/kg/injection, schedule: Q04DX003 (ip), vehicle: saline with Tween-80
[6] = dose: 400.0 mg/kg/injection, schedule: Q04DX003 (ip), vehicle: saline with Tween-80
[7] = dose: 50.0 mg/kg/injection, schedule: Q01DX009 (ip), vehicle: saline
[8] = dose: 100.0 mg/kg/injection, schedule: Q01DX009 (ip), vehicle: saline
[9] = dose: 200.0 mg/kg/injection, schedule: Q01DX009 (ip), vehicle: saline
[10] = dose: 60.0 mg/kg/injection, schedule: Q01DX005 (ip), vehicle: Klucel (hydroxypropylcellulose) (HPC)
[11] = dose: 120.0 mg/kg/injection, schedule: Q01DX005 (ip), vehicle: Klucel (hydroxypropylcellulose) (HPC)
[12] = dose: 240.0 mg/kg/injection, schedule: Q01DX005 (ip), vehicle: Klucel (hydroxypropylcellulose) (HPC)
[13] = dose: 200.0 mg/kg/injection, schedule: Q01DX009 (ip), vehicle: Klucel (hydroxypropylcellulose) (HPC)
[14] = dose: 100.0 mg/kg/injection, schedule: Q04DX003 (ip), vehicle: Klucel (hydroxypropylcellulose) (HPC)
[15] = dose: 200.0 mg/kg/injection, schedule: Q04DX003 (ip), vehicle: Klucel (hydroxypropylcellulose) (HPC)
[16] = dose: 100.0 mg/kg/injection, schedule: Q01DX001 (ip), vehicle: Klucel (hydroxypropylcellulose) (HPC)
[17] = dose: 200.0 mg/kg/injection, schedule: Q01DX001 (ip), vehicle: Klucel (hydroxypropylcellulose) (HPC)
[18] = dose: 60.0 mg/kg/injection, schedule: Q01DX005 (ip), vehicle: saline with Tween-80
[19] = dose: 120.0 mg/kg/injection, schedule: Q01DX005 (ip), vehicle: saline with Tween-80
[20] = dose: 240.0 mg/kg/injection, schedule: Q01DX005 (ip), vehicle: saline with Tween-80

Measured: T/C

CC12CC3OC(=O)C1COC14OC5(C2C1=O)C(O)(CCC1C4CC(O)C2(O)CC=CC(=O)C12C)C(=O)OC35C (stereo unspecified)
inactive: dose: 12.0 mg/kg/injection, schedule: Q01DX009 (ip), vehicle: Klucel (hydroxypropylcellulose) (HPC) 94 % of control | dose: 24.0 mg/kg/injection, schedule: Q01DX009 (ip), vehicle: Klucel (hydroxypropylcellulose) (HPC) 110 % of control | dose: 48.0 mg/kg/injection, schedule: Q01DX009 (ip), vehicle: Klucel (hydroxypropylcellulose) (HPC) 109 % of control

CC1(C)N=C(N)N=C(N)N1c1ccc(CN)cc1
inactive: dose: 60.0 mg/kg/injection, schedule: Q01DX005 (ip), vehicle: saline 110 % of control | dose: 120.0 mg/kg/injection, schedule: Q01DX005 (ip), vehicle: saline 103 % of control | dose: 240.0 mg/kg/injection, schedule: Q01DX005 (ip), vehicle: saline 106 % of control

CC(=O)C(CSC(=O)c1ccccc1)C(C)=O
inactive: dose: 100.0 mg/kg/injection, schedule: Q04DX002 (ip), vehicle: Klucel (hydroxypropylcellulose) (HPC) 100 % of control | dose: 200.0 mg/kg/injection, schedule: Q04DX002 (ip), vehicle: Klucel (hydroxypropylcellulose) (HPC) 100 % of control

C=CC#CC#Cc1ccc(C#CC)s1
inactive: dose: 12.5 mg/kg/injection, schedule: Q01DX009 (ip), vehicle: Klucel (hydroxypropylcellulose) (HPC) 96 % of control | dose: 25.0 mg/kg/injection, schedule: Q01DX009 (ip), vehicle: Klucel (hydroxypropylcellulose) (HPC) 100 % of control | [1] 105 % of control | [2] 104 % of control

Cc1cc2nc(C)nn2c(C)n1
inactive: dose: 25.0 mg/kg/injection, schedule: Q04DX003 (ip), vehicle: saline 104 % of control | dose: 50.0 mg/kg/injection, schedule: Q04DX003 (ip), vehicle: saline 96 % of control | dose: 100.0 mg/kg/injection, schedule: Q04DX003 (ip), vehicle: saline 111 % of control and 88 % of control | dose: 400.0 mg/kg/injection, schedule: Q04DX003 (ip), vehicle: saline 88 % of control

CC(=O)NC(CCl)(OC(C)=O)C(=O)OCc1ccc([N+](=O)[O-])cc1 (stereo unspecified)
inactive: dose: 12.5 mg/kg/injection, schedule: Q01DX001 (ip), vehicle: Klucel (hydroxypropylcellulose) (HPC) 102 % of control | dose: 25.0 mg/kg/injection, schedule: Q01DX001 (ip), vehicle: Klucel (hydroxypropylcellulose) (HPC) 108 % of control | [3] 100 % of control | [4] 106 % of control | [5] 120 % of control | [6] 100 % of control

O=C(O)c1c[nH]c2cc(OCCOc3ccccc3)ccc2c1=O
inactive: [7] 107 % of control | [8] 107 % of control | [9] 100 % of control

COc1ccccc1C1OC(N)=C(O)C1=O (stereo unspecified)
inactive: [10] 97 % of control | [11] 103 % of control | [12] 104 % of control

Nc1ncc(CCCCc2ccccc2)c(=O)[nH]1
inactive: dose: 100.0 mg/kg/injection, schedule: Q01DX001 (ip), vehicle: saline with Tween-80 100 % of control | dose: 200.0 mg/kg/injection, schedule: Q01DX001 (ip), vehicle: saline with Tween-80 104 % of control | dose: 400.0 mg/kg/injection, schedule: Q01DX001 (ip), vehicle: saline with Tween-80 100 % of control

C1CC[N-]CC1.C1CC[N-]CC1.C1CC[N-]CC1.C1CC[N-]CC1.[Pt+4]
inactive: dose: 2.0 mg/kg/injection, schedule: Q01DX009 (ip), vehicle: saline 95 % of control | dose: 4.0 mg/kg/injection, schedule: Q01DX009 (ip), vehicle: saline 89 % of control | dose: 8.0 mg/kg/injection, schedule: Q01DX009 (ip), vehicle: saline 93 % of control

CC(O)COc1ccccc1P(c1ccccc1)c1ccccc1 (stereo unspecified)
inactive: dose: 25.0 mg/kg/injection, schedule: Q01DX005 (ip), vehicle: Klucel (hydroxypropylcellulose) (HPC) 104 % of control and 95 % of control | dose: 50.0 mg/kg/injection, schedule: Q01DX005 (ip), vehicle: Klucel (hydroxypropylcellulose) (HPC) 104 % of control and 109 % of control and 97 % of control | dose: 100.0 mg/kg/injection, schedule: Q01DX005 (ip), vehicle: Klucel (hydroxypropylcellulose) (HPC) 101 % of control and 109 % of control and 91 % of control | dose: 200.0 mg/kg/injection, schedule: Q01DX005 (ip), vehicle: Klucel (hydroxypropylcellulose) (HPC) 104 % of control and 92 % of control

COc1cccc(NC(=S)NCc2cccnc2)c1
inactive: [1] 101 % of control | [2] 91 % of control | [13] 111 % of control

CCO/C(C)=N\O
inactive: dose: 25.0 mg/kg/injection, schedule: Q04DX003 (ip), vehicle: Klucel (hydroxypropylcellulose) (HPC) 98 % of control | [7] 103 % of control | dose: 50.0 mg/kg/injection, schedule: Q04DX003 (ip), vehicle: Klucel (hydroxypropylcellulose) (HPC) 98 % of control | [8] 97 % of control | [14] 99 % of control | [9] 101 % of control | [15] 99 % of control

Cc1c(Cl)c(C)c(Cl)c(O)c1Cl
inactive: [4] 104 % of control | [5] 100 % of control | [6] 104 % of control

COc1ccc(C2=Nc3ccccc3SC(c3ccc(OC)cc3)C2)cc1 (stereo unspecified)
inactive: [1] 102 % of control | [2] 96 % of control | [13] 88 % of control

COc1ccc(C(=O)c2coc3cc4c(cc23)OCO4)c(O)c1
inactive: [3] 88 % of control | [16] 88 % of control | [17] 88 % of control

CC1(C)SC(=O)N(CCC#CCCc2ccccc2)C1=O
inactive: [10] 102 % of control | [11] 100 % of control | [12] 92 % of control

Clc1ccc(-c2csc3sc4ccccc4[n+]23)cc1
inactive: dose: 50.0 mg/kg/injection, schedule: Q01DX005 (ip), vehicle: saline with Tween-80 111 % of control | dose: 100.0 mg/kg/injection, schedule: Q01DX005 (ip), vehicle: saline with Tween-80 118 % of control | dose: 200.0 mg/kg/injection, schedule: Q01DX005 (ip), vehicle: saline with Tween-80 113 % of control

CCCCCC1(CCCCCCCC(O)CC(=O)OCC)OCCO1 (stereo unspecified)
inactive: [16] 100 % of control | [17] 108 % of control | dose: 400.0 mg/kg/injection, schedule: Q01DX001 (ip), vehicle: Klucel (hydroxypropylcellulose) (HPC) 100 % of control

O=C(CNNC(=O)OCc1ccccc1)OCc1ccccc1
inactive: dose: 12.5 mg/kg/injection, schedule: Q01DX009 (ip), vehicle: other 95 % of control | dose: 25.0 mg/kg/injection, schedule: Q01DX009 (ip), vehicle: other 99 % of control | dose: 50.0 mg/kg/injection, schedule: Q01DX009 (ip), vehicle: other 93 % of control | dose: 100.0 mg/kg/injection, schedule: Q01DX009 (ip), vehicle: other 96 % of control

COC(=O)NC1CCC(=O)N1Cc1ccccc1 (stereo unspecified)
inactive: [18] 96 % of control | [19] 94 % of control | [20] 102 % of control

O=C(Cc1ccc(CC(=O)NCCCCc2ccccc2)cc1)NCCCCc1ccccc1
inactive: [18] 88 % of control | [19] 88 % of control | [20] 86 % of control

COc1cccc(C(Nc2nncs2)Nc2nncs2)c1OC
inactive: [18] 87 % of control | [19] 91 % of control | [20] 100 % of control

CCC(C)C1C(=O)O[B-](F)(F)/[N+]1=C\c1ccccc1 (stereo unspecified)
inactive: [14] 104 % of control | [15] 109 % of control

CCC(=O)C(=O)c1ccc(O)cc1O
inactive: [1] 108 % of control | [2] 108 % of control | [13] 105 % of control

CC1(C(O)CO)C=C2CCC3C(C)(C)C(O)CCC3(C)C2CC1 (stereo unspecified)
inactive: dose: 2.25 mg/kg/injection, schedule: Q01DX009 (ip), vehicle: Klucel (hydroxypropylcellulose) (HPC) 108 % of control | dose: 4.5 mg/kg/injection, schedule: Q01DX009 (ip), vehicle: Klucel (hydroxypropylcellulose) (HPC) 103 % of control | dose: 9.0 mg/kg/injection, schedule: Q01DX009 (ip), vehicle: Klucel (hydroxypropylcellulose) (HPC) 103 % of control | dose: 18.0 mg/kg/injection, schedule: Q01DX009 (ip), vehicle: Klucel (hydroxypropylcellulose) (HPC) 93 % of control

Cc1onc(-c2ccccc2)c1C(=O)N/N=C/c1cc(Cl)cc(Cl)c1O
inactive: [7] 103 % of control | [8] 91 % of control | [9] 99 % of control
